Measurements from a melting point compilation (Tetko et al.; mined from patent text by program, amines drawn as free bases though some values may be those of a salt).

SMILES | melting point [°C]
O=C1CCCN1Cc1ccc(F)cc1 | 37 to 38
COC(=O)C(=O)c1ccc(OCC#Cc2ccccc2)cc1 | 57 to 59
CCOC(=O)Cc1c2ccccc2n2c(-c3cccs3)nccc12 | 94 to 95
CC(=O)NC1(C)Cc2ccccc2C(C)c2ccccc2C1 (stereo not given) | 185 to 224
CCNc1nc2ccccc2s1 | 93
OC(CCc1ccc2ccccc2c1)Cn1ccnc1 (stereo not given) | 122 to 124
CCn1cnc2c(Nc3cccc(Cl)c3)nc(N3CCCC(N)C3)nc21 (stereo not given) | 165
CNC1CN(c2nc3c(cc2F)c(=O)c(C(=O)O)cn3C2CC2)C1 | 206 to 212
Cc1cn(CC(=O)c2ccc(-c3ccc(N4C[C@H](Cn5ccnn5)OC4=O)cc3F)cn2)c(C)n1 | 78
CS(=O)(=O)C(=C1CN(C(c2ccccc2)c2ccccc2)C1)c1cc(C(F)(F)F)cc(C(F)(F)F)c1 | 192
CS(=O)(=O)c1ccc(-c2nc(C(F)(F)F)nc(Cl)c2-c2ccc(F)cc2)cc1 | 195 to 197
CC(C)n1nc(-c2c(F)nc(N)nc2-c2ccccc2)ccc1=O | 231 to 232
Cc1ccc(-c2cc(C(F)(F)F)n3cnc(-c4ccncc4)c3n2)cc1C(F)(F)F | 222
COc1ccccc1[C@@]1(O)[C@H](O)CC(c2ccccc2)(c2ccccc2)[C@@H]2CN(C(=O)Cc3c[nH]c4ccccc34)C[C@@H]21 (racemic) | 266
O=C(Nc1cc(Cl)cc(Cl)c1)c1cc(F)ccc1O | 258 to 260
COC(=O)C=C(Nc1cc2c(cc1OCc1ccccc1)N(C(=O)OC(C)(C)C)CC2COC(C)=O)C(F)(F)F (stereo not given) | 114 to 115
NS(=O)(=O)c1ccc(-c2[nH]c3ccc(Cl)cc3c2-c2ccc(Cl)cc2)cc1 | 245 to 247
N#CCc1cc(C(=O)c2ccc(Cl)cc2)cn1Cc1ccccc1 | 102 to 104
O=C(Nc1ccc2cc(CN3CCCC3)cnc2c1F)c1ccc(-c2ccccc2)cc1F | 136 to 137
O=C(O)Cn1c(=O)c(=O)[nH]c2cc([N+](=O)[O-])ccc21 | > 320
CCC1CC(=O)C(C(=O)NS(=O)(=O)c2ccc(C)cc2)C(=O)C1 (stereo not given) | 86 to 87
Cc1noc2cc3c(cc12)C1(CO3)C(=O)N(Cc2ccccn2)c2ccccc21 (stereo not given) | 142 to 143
C[C@@H](NC(=O)c1c[nH]c2ncc(-c3nn(C)c4cccnc34)nc12)C(=O)N1CC(C#N)C1 | 194 to 198

SMILES | melting point [°C]
C=CCNc1nc(NCc2ccccc2)c2cc([N+](=O)[O-])ccc2n1 | 235 to 236
CC(C)C1CC(=O)C(c2ccccn2)C(=O)C1 (stereo not given) | 110 to 112
CCc1oc(-c2ccc(S(C)(=O)=O)cc2)c(Oc2ccc(F)cc2F)c(=O)c1C | 200
COC(=O)c1ccc(S(C)(=O)=O)cc1N | 98.3 to 98.5
O=C(OCc1ccccc1)c1ncn2c1[C@@H]1CCN1C(=O)c1c(Cl)cccc1-2 | 180 to 182
CCC(CC)Oc1cc(C)nc(Oc2c(C)cc(C(=O)O)cc2C)c1C | 168
CC(C)C(=O)Nc1nc(CN2CCN(C(c3ccccc3)c3ccccc3)CC2)cs1 | 132 to 140
CCCOc1ccc(Br)cc1-c1nc2c(CCC)nn(C)c2c(=O)[nH]1 | 117 to 118
O=C(NC(c1ccccc1)c1ccccc1)NS(=O)(=O)Cl | 80 to 88
Cn1cccc1-c1nc2cc(N)ccc2o1 | 183 to 185
C=C(F)C(=O)Oc1ccc(C#N)cc1 | 78 to 79
Cc1nc(N2CCN(Cc3ccccc3)C2=O)sc1C(N)=O | 217 to 218
C[C@@H]1C(=O)C[C@H]2C[C@@H]1OO[C@@]2(C)/C=C\c1cccc(C(F)(F)F)c1 | 101
O=c1cc(N2CCOCC2)cc(-c2ccccc2)o1 | 161 to 162
N=C(NCC(F)(F)F)NC(N)=S | 164 to 166
Cc1cc(C)c(N2CCCc3c2nn(C)c3N)c(Cl)c1 | 234 to 236
C=CC(CCc1ccccc1)NC(=O)OC(C)(C)C (stereo not given) | 53
C=CS(=O)(=O)NCc1ccc(OC)cc1 | 68 to 69
COC(=O)c1ccc(SCc2cccc(C(F)(F)F)c2)c(C)n1 | 91 to 93
CC(=O)Nc1ccc(S(=O)(=O)NCCCN2CCOCC2)cc1 | 97 to 98
N#Cc1cc2c(-c3cccc(NC(=O)c4cccc(C(F)(F)F)c4)c3)ncnc2s1 | 210 to 212
Cc1cccc(OCC(=S)NCCNC(=S)Nc2ccccc2)c1C | 112 to 113
CCNC(=O)c1c(NC(=O)c2cc(C(F)(F)F)nn2-c2ncccc2Cl)c(C)cc2nc(C)ccc12 | > 230

SMILES | melting point [°C]
N#CCc1cc(Cl)ncc1[N+](=O)[O-] | 87 to 89
CNCc1cnc(Nc2n[nH]c3ccc(-c4ncccc4Cl)cc23)s1 | 200 to 201
CN1CCC(NNC(=O)c2ccccc2)CC1 | 149 to 150
O=C(O)c1ccc(CO)c2ccccc12 | 183 to 184
OC[C@H]1CCc2cccc(O)c2O1 | 131 to 132
CCCc1nc(Nc2cccc(N(C)C)c2)nc(NC2CCN(S(C)(=O)=O)CC2)n1 | 134 to 136
CCOc1cc(OC2CCN(C)CC2)c(F)c([C@H](Nc2ccc(C(=N)N)cc2)C(=O)O)c1 | 267
CCc1nc(N)nc(N)c1-c1ccc(NCc2ccc(Cl)c(Cl)c2)c([N+](=O)[O-])c1 | 244 to 246
O=[N+]([O-])c1ccccc1NC1CCN(Cc2ccccc2)CC1 | 93.4 to 94.6
CC(=O)c1ccc(NS(=O)(=O)c2sc3ccc(F)cc3c2C)c(S(C)(=O)=O)c1 | 174 to 175
COC1CCN2C(=O)c3cccc(NC(=O)Nc4ccccn4)c3C2C1 (stereo not given) | 166 to 168
CCCn1c(=O)cc(NNC(=S)NC(C)=O)n(Cc2ccccc2)c1=O | 184 to 185
Cn1nc(C(F)(F)F)n(-c2ccc(O)cc2)c1=S | 150 to 152
Cc1cc(-c2cc3cc(OCCNC[C@H](O)c4cccc(C(F)(F)F)c4)ccc3o2)no1 | 126 to 127
CNC1CCN(c2c(F)cc3c(=O)c(C(=O)O)cn(C4COC4)c3c2F)C1 (stereo not given) | 252 to 255
Cc1ncccc1C(=O)NCC1CCN(C[C@H]2COc3ccc(Cl)cc3O2)CC1 | 133 to 136
O=C(O)c1ccc(-c2n[nH]c3c2Cc2ccccc2-3)cc1 | > 320
O=C(O)CCNC(=S)Nc1ccc2cn[nH]c2c1 | 175
Cn1nc(-c2c(F)cccc2Cl)nc1-c1ccc(OCc2ccc(C(F)(F)F)cc2F)c(Cl)c1 | 109 to 111
CC(C)c1cccc(C(C)C)c1NC(=O)NCC1(c2ccc(N(C)C)cc2)CCCC1 | 132 to 133
O=C1c2ccccc2S(=O)(=O)N1C1CCN(Cc2c[nH]c3ccccc23)CC1 | 214 to 215
Cc1sc(C(=O)O)c2c1-c1nn(Cc3ccccc3)cc1CC2 | 231 to 232

Now from value to compound:

melting point [°C] | SMILES
211 to 213 | CCN1C(=O)C(C)(C)c2ccc(C(=O)Nc3ccc(C#N)cc3)cc21
56.5 | Cc1ccc(Sc2ccc(C)cc2)cc1
177 to 178 | CS(=O)(=O)OCCCn1cc(C2=C(c3ccccc3[N+](=O)[O-])C(=O)NC2=O)c2ccccc21
115 | O=C(c1ccc(C(F)(F)F)cc1)N1CCC(Cc2ccc(C3=NCCO3)cc2)CC1
102 to 104 | COc1cc(C2CCCO2)cc(OC)c1OC (stereo not given)
81 to 86 | COC1=C(C(=O)c2ccc(Cl)cc2Cl)C(=O)CCC1
218 to 220 | O=C1C(=O)c2ccccc2C2=C1SCC1(CCN(C(=O)c3cccnc3)CC1)O2
65.5 to 66 | C(CSc1nnc(SCCCN2CCOCC2)s1)CN1CCOCC1
241 | CN1CCN(c2ccc(-n3c(-c4cc(-c5cnc6[nH]ccc6c5)ccn4)cn(C)c3=O)cc2C(F)(F)F)CC1
208 to 211 | CC(C)Oc1nccc(-c2c(-c3ccc(F)cc3)ncn2C2CCC(O)CC2)n1 (stereo not given)
245 to 246 | CCOC(=O)c1cn(-c2ccc(F)c(OC)c2)c2c(Cl)c(F)c(F)cc2c1=O
144 to 156 | CC(=Nc1ccc(O)cc1C)c1ccccc1O
205 to 206 | COCCc1nc2c(N)nc3ccccc3c2n1CC1(O)CCOCC1
275 to 276 | COc1cc(Cc2c(N)nc(N)nc2O)cc(OC)c1OC
90 | c1cc(-c2ccc(OCCCN3CCCCC3)cc2)ccc1CN1CCCCC1
178 | N#Cc1ccc(-c2ccc(F)cc2)nc1Cl

melting point [°C] | SMILES
156 to 157 | O=C(O)CC1(O)CCc2c([nH]c3ccccc23)C1=O (stereo not given)
181 to 185 | C(=Cc1nc2ccccc2s1)c1ccc2cc(N(c3ccccc3)c3ccccc3)ccc2c1
208 to 211 | Cc1ccc2c3c(c(Cl)nc2c1)C(=O)c1ccccc1-3
152 | CNC(C)=C(C#N)C(=O)c1ccc(Cl)cc1
183 to 184 | Cc1nc(NC(=O)NS(=O)(=O)c2ccccc2C(=O)O)nc2c1CCC2
157 to 159 | COc1cc2c(c3c1OC(C)(C)C3)C(c1cccc(N3CCN(C(=O)OC(C)(C)C)S3(=O)=O)c1)=NC(C)(C)C2
171 to 172 | CCOC(=O)c1ncn2cc(Br)sc12
58 to 59 | FC(F)Oc1cccc2cnsc12
136 to 137 | CS(=O)(=O)NCCCCCCCCCCCn1c2c(c3ccccc3c1=O)C(=O)c1ccccc1-2
267 to 269 | O=C(O)c1ccc2c(c1)Sc1ccccc1N=C2N1CCOCC1
180 | Cc1cc(C(=O)NC(=O)NC2CCCCC2)no1
210 | CC(=O)Oc1cc(C)ccc1C1CCN(CCCCNC(=O)c2ccc(NC(=O)c3ccc(Cl)cc3)cc2)CC1
111 to 113 | C[C@@H]1Cc2ccsc2[C@H](C)N1CCNC(=O)c1cccs1 (relative stereo)
107 to 109 | COC(=O)COc1cccc(-c2nc(COc3ccc(COc4nn(-c5ccccc5)cc4C=O)cc3OC)c(C)o2)c1
198 to 199 | CC[C@H](C)[C@H](NC(=O)OCc1ccccc1)C(=O)N[C@@H](CO)Cc1c[nH]c2ccccc12
174 to 176 | CC1(C)CCC(NC(N)=O)CC1
